Entries after “also recorded” stand apart in the source; their conditions may differ.
Assays:
[1] = test system: IL-1β production in liver Kupffer cells; test: IL-1β secretion by LPS/ATP-stimulated Kupffer cells; format: cell-based, mouse; details: LPS and ATP
Procedure: (§1) FIGS. 6A-6B illustrate the finding that bone marrow macrophages and liver Kupffer cells increase IL-1β in response to adenosine signaling. FIG. 6A: Murine bone marrow derived macrophages (BMDM) were primed with LPS for 16 hours, treated with NECA (10 μM) for 1 hour, and then pulsed with ATP. FIG. 6b: Primary murine liver Kupffer cells were primed with LPS for 16 hours, treated with NECA (10 μM) for 1 hour, and then pulsed with ATP. IL-1β secretion was measured in supernatants 5 hours after pulsing with ATP. Data are expressed as the mean±SD from at least three independent experiments. *p<0.05 determined by Student's t-test.
(§2) C57BL/6 mice were purchased from the National Cancer Institute. ASC−/−, Caspase-1−/−, Nlrp3−/− and P2xr7−/− mice have been described (Rock et al., 2010, Annu Rev Immunol. 28:321-42). A2ora2a flox/flox mice and LysMcre mice were purchased from Jackson Laboratories. HIF-1a flox/flox mice were kindly provided by Dr. Ruslan M Medzhitov (Yale University). 7- to 12-week-old males with a variety of genetic manipulations were used in most experiments. […]
(§3) Primed PECs were both pulsed for 20 min with 5 mM ATP or 10 μM nigericin, and left untreated until culture supernatants were collected. Secretion of IL-1β was determined by enzyme-linked immunoabsorbent assay (ELISA; R&D Systems).

[2] = test system: IL-1β production in murine peritoneal macrophages (PECs); test: IL-1β secretion (ELISA) by primed, ATP-pulsed peritoneal macrophages (PECs); format: cell-based, mouse
Procedure: FIGS. 1A-1J illustrate the finding that adenosine stimulates IL-1β production in NLRP3 inflammasome-dependent manner. Murine peritoneal macrophages (PECs) were obtained from wild type (WT) mice (FIGS. 1A-1D, 1F-1I), Il1r−/− (FIG. 1E) or Nlrp3−/−, ASC−/−, P2xr7−/−, or Caspase-1−/− mice (FIG. 1J) and were primed with LPS for 16 hours. FIG. 1A: This was followed by treatment for 1 hour with adenosine (Ad, 100 μM), adenosine deaminase inhibitor (EHNA, 10 μM), adenosine deaminase (ADA, 10 U ml^−1), ATP diphosphohydrolase (Apyrase, 10 U ml^−1), or erythro-9-(2-hydroxy-3-nonyl) adenine (EHNA, 10 μM) (FIGS. 1B, 1F-1J)). Pan adenosine agonist (NECA, 1 μM, 10 μM) (FIGS. 1C, 1E), or (FIGS. 1D, 1I) by NECA for 1 and 6 hours, and were then pulsed with ATP for 20 min. Enzyme-linked immunosobent assay (ELISA) of IL-1β, TNF-α, IL-10 and IFN-γ secretion were measured in cell supernatants after pulsing with ATP for 5 hours (FIGS. 1A, 1C-1E, 1J) or indicated time-course (FIGS. 1B, 1G-1I). LDH assay was performed after pulsing with ATP as indicated time-course (FIG. 1F). Data are expressed as the mean±SD from at least three independent experiments. *p<0.05 determined by Student's t-test.
C57BL/6 mice were purchased from the National Cancer Institute. ASC−/−, Caspase-1−/−, Nlrp3−/− and P2xr7−/− mice have been described (Rock et al., 2010, Annu Rev Immunol. 28:321-42). A2ora2a flox/flox mice and LysMcre mice were purchased from Jackson Laboratories. HIF-1a flox/flox mice were kindly provided by Dr. Ruslan M Medzhitov (Yale University). 7- to 12-week-old males with a variety of genetic manipulations were used in most experiments. The number of mice in each experimental group was chosen based on previous experience with these experimental models. Mouse peritoneal macrophages (PECs) were isolated by peritoneal lavage 3 days after intraperitoneal injection of 4% thioglycollate solution (B2551, Fluka,). Cells were plated at the density of 3×10^6 cells in 12-well dishes and non-adherent cells were removed after 3 h. Cells primed overnight with 100 ng/ml LPS or 10 ng/ml Pam3CSK4 were treated with various chemicals and followed stimulation. Cells were cultured in DMEM medium complemented with 10% FBS, penicillin/streptomycin and L-glutamine. Mouse bone marrow derived macrophages were isolated from bone marrow cells, and were differentiated for 7 days in complete RPMI-1640 medium supplemented with 2 mM L-glutamine, 100 U/ml penicillin, 100 μg/ml streptomycin, 50 μM 2-mercaptoethanol (all from Invitrogen), 10% heat-inactivated FBS and 20 ng/ml M-CSF (PeproTech). Kupffer cells (KC) were isolated by the density gradient separation of Optiprep (Sigma), and then plates were gently washed and media was replenished after seeding cells for 2 hours to raise KC purity.
as §3

[3] = test system: IL-1β production in bone marrow derived macrophages; test: IL-1β secretion by LPS/ATP-stimulated bone marrow derived macrophages; format: cell-based, mouse; details: LPS and ATP
Procedure: as §1, §2, §3

[4] = test system: IL-1β production in murine peritoneal macrophages (PECs); test: IL-1β secretion (ELISA) by primed, ATP-pulsed peritoneal macrophages (PECs); format: cell-based, mouse; details: LPS and monosodium urate (MSU) crystals
[5] = test system: wild type and Casp-1−/− mice injected with TAA; test: TAA induced liver fibrosis with co-injection of adenosine agonist; format: in vivo, mouse; details: wildtype mice
Procedure: FIGS. 16A-16B illustrate increased liver fibrosis in wild-type control but not caspase-1-deficient mice in response to adenosine agonist. FIG. 16A: Wild type and Casp-1−/− mice were injected intraperitoneally with TAA with co-injection of CGS21680 (2.5 mg kg^−1 body weight) or vehicle. The liver tissues from each group were collected […] after first injection, and tissue collagen visualized by Sirius red staining, and the representative images are shown. Scale bar corresponds to 500 μm. FIG. 16B: Total liver RNA was extracted and Timp1 mRNA levels quantified. Data are expressed as the mean±SD from three independent experiments. * p<0.05 determined by Student's t-test.
To further test the effect of increased adenosine signaling on fibrosis wild-type and caspase-1 deficient mice were injected with TAA with and without co-injection of the adenosine agonist CGS21680. After one week, liver tissues were stained for collagen with Sirus Red. CGS21680 increased TAA induced liver fibrosis and Timp1 expression in wildtype but not caspase-1 deficient mice (FIGS. 16A-16B).

[6] = LPS-primed PECs pulsed with ATP
[7] = PECs from A2A receptor deficient cells

Q: How did the IL-1β production [1] turn out when `CCNC(=O)[C@H]1O[C@@H](n2cnc3c(N)ncnc32)[C@H](O)[C@@H]1O` [NECA, 5′-(N-ethylcarboxamido) adenosine] was run?
A: significantly increased

Q: What about the “IL-1β production in wild-type vs IL-1 receptor deficient macrophages” value ([2]; LPS + ATP) of the same compound?
A: to a similar degree

Q: And the IL-1β production [2, 6]?
A: stimulated an increase; also recorded: increased

Q: What about the IL-1β production [2, 7] of the same compound?
A: not increased

Q: What about the “IL-1β production by LPS and ATP” value ([2]; macrophages lacking caspase-1, NLRP3, ASC or P2x7 receptor) of the same compound?
A: did not result in significant production of IL-1β

Q: What about the IL-1β production [3] of the same compound?
A: significantly increased

Q: And the IL-1β production [4]?
A: increased

Q: With `CCNC(=O)[C@H]1O[C@@H](n2cnc3c(N)nc(NCCc4ccc(CCC(=O)O)cc4)nc32)[C@H](O)[C@@H]1O` [CGS21680] as the compound, how does the “TAA induced liver fibrosis” value [5] read?
A: increased

Q: And the Timp1 expression [5]?
A: increased

Q: What about the IL-1β production [2, 6] of the same compound?
A: increase IL-1β production to a comparable degree to NECA and EHNA

Q: And the IL-1β production [2, 7]?
A: not increased
